Experimental data reported in ChEMBL document CHEMBL5724914, “Linking interpersonal differences in gut microbiota composition and drug biotransformation activity” (2024).

experiment: (§1) The drug is tested on Z-009 corresponding to pig gut metagenome with ENA study accession number: PRJEB37062 and ENA sample accession number: ERS12561809 for biotransformation under anaerobic condition. The drug concentrations were measured over 9 timepoints collected between 0 and 24 hours of incubation by liquid-chromatography-coupled mass spectrometry (LC–MS); conditions: 2 µM
Also: call rule not given here.

SMILES	Bacterial Biotransformation
O=P1(N(CCCl)CCCl)NCCCO1 (stereo not given) [CYCLOPHOSPHAMIDE ANHYDROUS]	Compound metabolized
Br.COc1ccc2c(c1)[C@]13CCCC[C@@H]1[C@H](C2)N(C)CC3.O [DEXTROMETHORPHAN HYDROBROMIDE]	Compound metabolized

experiment: as §1, with “Z-006” for “Z-009”, “mouse” for “pig”, “ERS12561806” for “ERS12561809”; conditions: 2 µM

SMILES	Bacterial Biotransformation
O=P1(N(CCCl)CCCl)NCCCO1 (stereo not given) [CYCLOPHOSPHAMIDE ANHYDROUS]	Compound NOT metabolized
Br.COc1ccc2c(c1)[C@]13CCCC[C@@H]1[C@H](C2)N(C)CC3.O [DEXTROMETHORPHAN HYDROBROMIDE]	Compound NOT metabolized

conditions: human gut metagenome, 24 h, 2 µM

SMILES	Bacterial Biotransformation
O=P1(N(CCCl)CCCl)NCCCO1 (stereo not given) [CYCLOPHOSPHAMIDE ANHYDROUS]	Compound NOT metabolized
Br.COc1ccc2c(c1)[C@]13CCCC[C@@H]1[C@H](C2)N(C)CC3.O [DEXTROMETHORPHAN HYDROBROMIDE]	Compound NOT metabolized

experiment: as §1, with “Z-013” for “Z-009”, “rabbit” for “pig”, “ERS12561813” for “ERS12561809”; conditions: 2 µM

SMILES	Bacterial Biotransformation
O=P1(N(CCCl)CCCl)NCCCO1 (stereo not given) [CYCLOPHOSPHAMIDE ANHYDROUS]	Compound NOT metabolized
Br.COc1ccc2c(c1)[C@]13CCCC[C@@H]1[C@H](C2)N(C)CC3.O [DEXTROMETHORPHAN HYDROBROMIDE]	Compound NOT metabolized

conditions: human gut metagenome, 24 h, 2 µM; remark: another data set of the same source

SMILES	Bacterial Biotransformation
O=P1(N(CCCl)CCCl)NCCCO1 (stereo not given) [CYCLOPHOSPHAMIDE ANHYDROUS]	Compound NOT metabolized
Br.COc1ccc2c(c1)[C@]13CCCC[C@@H]1[C@H](C2)N(C)CC3.O [DEXTROMETHORPHAN HYDROBROMIDE]	Compound metabolized

conditions: human gut metagenome, 24 h, 2 µM; remark: another data set of the same source

SMILES	Bacterial Biotransformation
O=P1(N(CCCl)CCCl)NCCCO1 (stereo not given) [CYCLOPHOSPHAMIDE ANHYDROUS]	Compound NOT metabolized
Br.COc1ccc2c(c1)[C@]13CCCC[C@@H]1[C@H](C2)N(C)CC3.O [DEXTROMETHORPHAN HYDROBROMIDE]	Compound metabolized

conditions: human gut metagenome, 24 h, 2 µM; remark: another data set of the same source

SMILES	Bacterial Biotransformation
O=P1(N(CCCl)CCCl)NCCCO1 (stereo not given) [CYCLOPHOSPHAMIDE ANHYDROUS]	Compound NOT metabolized
Br.COc1ccc2c(c1)[C@]13CCCC[C@@H]1[C@H](C2)N(C)CC3.O [DEXTROMETHORPHAN HYDROBROMIDE]	Compound metabolized

experiment: as §1, with “WLS-052” for “Z-009”, “human” for “pig”, “ERS12561747” for “ERS12561809”; conditions: 2 µM

SMILES	Bacterial Biotransformation
O=P1(N(CCCl)CCCl)NCCCO1 (stereo not given) [CYCLOPHOSPHAMIDE ANHYDROUS]	Compound NOT metabolized
Br.COc1ccc2c(c1)[C@]13CCCC[C@@H]1[C@H](C2)N(C)CC3.O [DEXTROMETHORPHAN HYDROBROMIDE]	Compound NOT metabolized

experiment: as §1, with “Z-004” for “Z-009”, “to” for “to pig gut”, “ERS12561804” for “ERS12561809”; conditions: 2 µM

SMILES	Bacterial Biotransformation
O=P1(N(CCCl)CCCl)NCCCO1 (stereo not given) [CYCLOPHOSPHAMIDE ANHYDROUS]	Compound metabolized
Br.COc1ccc2c(c1)[C@]13CCCC[C@@H]1[C@H](C2)N(C)CC3.O [DEXTROMETHORPHAN HYDROBROMIDE]	Compound metabolized

conditions: human gut metagenome, 24 h, 2 µM; remark: another data set of the same source

SMILES	Bacterial Biotransformation
O=P1(N(CCCl)CCCl)NCCCO1 (stereo not given) [CYCLOPHOSPHAMIDE ANHYDROUS]	Compound NOT metabolized
Br.COc1ccc2c(c1)[C@]13CCCC[C@@H]1[C@H](C2)N(C)CC3.O [DEXTROMETHORPHAN HYDROBROMIDE]	Compound metabolized

conditions: human gut metagenome, 24 h, 2 µM; remark: another data set of the same source

SMILES	Bacterial Biotransformation
O=P1(N(CCCl)CCCl)NCCCO1 (stereo not given) [CYCLOPHOSPHAMIDE ANHYDROUS]	Compound NOT metabolized
Br.COc1ccc2c(c1)[C@]13CCCC[C@@H]1[C@H](C2)N(C)CC3.O [DEXTROMETHORPHAN HYDROBROMIDE]	Compound NOT metabolized

experiment: as §1, with “Z-023” for “Z-009”, “to” for “to pig gut”, “ERS12561822” for “ERS12561809”; conditions: 2 µM

SMILES	Bacterial Biotransformation
O=P1(N(CCCl)CCCl)NCCCO1 (stereo not given) [CYCLOPHOSPHAMIDE ANHYDROUS]	Compound NOT metabolized
Br.COc1ccc2c(c1)[C@]13CCCC[C@@H]1[C@H](C2)N(C)CC3.O [DEXTROMETHORPHAN HYDROBROMIDE]	Compound metabolized

experiment: as §1, with “WLS-010” for “Z-009”, “human” for “pig”, “ERS12561743” for “ERS12561809”; conditions: 2 µM

SMILES	Bacterial Biotransformation
O=P1(N(CCCl)CCCl)NCCCO1 (stereo not given) [CYCLOPHOSPHAMIDE ANHYDROUS]	Compound NOT metabolized
Br.COc1ccc2c(c1)[C@]13CCCC[C@@H]1[C@H](C2)N(C)CC3.O [DEXTROMETHORPHAN HYDROBROMIDE]	Compound metabolized

experiment: as §1, with “Z-007” for “Z-009”, “rat” for “pig”, “ERS12561807” for “ERS12561809”; conditions: 2 µM

SMILES	Bacterial Biotransformation
O=P1(N(CCCl)CCCl)NCCCO1 (stereo not given) [CYCLOPHOSPHAMIDE ANHYDROUS]	Compound NOT metabolized
Br.COc1ccc2c(c1)[C@]13CCCC[C@@H]1[C@H](C2)N(C)CC3.O [DEXTROMETHORPHAN HYDROBROMIDE]	Compound NOT metabolized

conditions: human gut metagenome, 24 h, 2 µM; remark: another data set of the same source

SMILES	Bacterial Biotransformation
O=P1(N(CCCl)CCCl)NCCCO1 (stereo not given) [CYCLOPHOSPHAMIDE ANHYDROUS]	Compound metabolized
Br.COc1ccc2c(c1)[C@]13CCCC[C@@H]1[C@H](C2)N(C)CC3.O [DEXTROMETHORPHAN HYDROBROMIDE]	Compound metabolized

experiment: as §1, with “WLS-073” for “Z-009”, “human” for “pig”, “ERS12561749” for “ERS12561809”; conditions: 2 µM

SMILES	Bacterial Biotransformation
O=P1(N(CCCl)CCCl)NCCCO1 (stereo not given) [CYCLOPHOSPHAMIDE ANHYDROUS]	Compound NOT metabolized
Br.COc1ccc2c(c1)[C@]13CCCC[C@@H]1[C@H](C2)N(C)CC3.O [DEXTROMETHORPHAN HYDROBROMIDE]	Compound NOT metabolized

conditions: human gut metagenome, 24 h, 2 µM; remark: another data set of the same source

SMILES	Bacterial Biotransformation
O=P1(N(CCCl)CCCl)NCCCO1 (stereo not given) [CYCLOPHOSPHAMIDE ANHYDROUS]	Compound metabolized
Br.COc1ccc2c(c1)[C@]13CCCC[C@@H]1[C@H](C2)N(C)CC3.O [DEXTROMETHORPHAN HYDROBROMIDE]	Compound metabolized

experiment: as §1, with “Z-025” for “Z-009”, “rabbit” for “pig”, “ERS12561824” for “ERS12561809”; conditions: 2 µM

SMILES	Bacterial Biotransformation
O=P1(N(CCCl)CCCl)NCCCO1 (stereo not given) [CYCLOPHOSPHAMIDE ANHYDROUS]	Compound NOT metabolized
Br.COc1ccc2c(c1)[C@]13CCCC[C@@H]1[C@H](C2)N(C)CC3.O [DEXTROMETHORPHAN HYDROBROMIDE]	Compound metabolized

experiment: as §1, with “WLS-350” for “Z-009”, “human” for “pig”, “ERS12561789” for “ERS12561809”; conditions: 2 µM

SMILES	Bacterial Biotransformation
O=P1(N(CCCl)CCCl)NCCCO1 (stereo not given) [CYCLOPHOSPHAMIDE ANHYDROUS]	Compound NOT metabolized
Br.COc1ccc2c(c1)[C@]13CCCC[C@@H]1[C@H](C2)N(C)CC3.O [DEXTROMETHORPHAN HYDROBROMIDE]	Compound metabolized

experiment: as §1, with “Z-022” for “Z-009”, “mouse” for “pig”, “ERS12561821” for “ERS12561809”; conditions: 2 µM

SMILES	Bacterial Biotransformation
O=P1(N(CCCl)CCCl)NCCCO1 (stereo not given) [CYCLOPHOSPHAMIDE ANHYDROUS]	Compound NOT metabolized
Br.COc1ccc2c(c1)[C@]13CCCC[C@@H]1[C@H](C2)N(C)CC3.O [DEXTROMETHORPHAN HYDROBROMIDE]	Compound NOT metabolized
